Marks after values point to notes of the source that are not given here.
Columns and labels:
[1] = target: T1, JAK1 (h) (Homo sapiens, UniProt P23458); experiment: JAK1 (h) kinase assay; assay type: biochemical; conditions: [γ-33P-ATP] 10 μM or KM values; 40 minutes at room temperature
T1 construct: purchased Millipore UK Ltd (assays performed there as a service)
Procedure: (§1) The above assay procedure can be used to determine the IC50 for inhibition and/or the inhibition constant, Ki. […] The IC50 value is estimated by preparing a 10 point curve using a ½ log dilution series (for example, a typical curve may be prepared using the following compound concentrations: 3 μM, 1 μM, 0.3 μM, 0.1 μM, 0.03 μM, 0.01 μM, 0.003 μM, 0.001 μM, 0.0003 μM and 0 μM).
JAK1 (h) is incubated with 20 mM Tris/HCl pH 7.5, 0.2 mM EDTA, 500 μM […], 10 mM MgAcetate and [γ-^33P-ATP] […] The reaction is initiated by the addition of the MgATP mix. After incubation for 40 minutes at room temperature, the reaction is stopped by the addition of 3% phosphoric acid solution. 10 μL of the reaction is then spotted onto a P30 filtermat and washed three times for 5 minutes in 75 mM phosphoric acid and once in methanol prior to drying and scintillation counting.
(§2) The kinase assays described herein were performed at Millipore UK Ltd, Dundee Technology Park, Dundee DD2 1SW, UK.

[2] = target: T2, Aurora-A (h) (Homo sapiens, UniProt O14965); experiment: Aurora-A (h) kinase assay; assay type: biochemical; conditions: [γ-33P-ATP] 10 μM or KM values; 40 minutes at room temperature
T2 construct: purchased Millipore UK Ltd (assays performed there as a service)
T2 sequence (O14965 1-403): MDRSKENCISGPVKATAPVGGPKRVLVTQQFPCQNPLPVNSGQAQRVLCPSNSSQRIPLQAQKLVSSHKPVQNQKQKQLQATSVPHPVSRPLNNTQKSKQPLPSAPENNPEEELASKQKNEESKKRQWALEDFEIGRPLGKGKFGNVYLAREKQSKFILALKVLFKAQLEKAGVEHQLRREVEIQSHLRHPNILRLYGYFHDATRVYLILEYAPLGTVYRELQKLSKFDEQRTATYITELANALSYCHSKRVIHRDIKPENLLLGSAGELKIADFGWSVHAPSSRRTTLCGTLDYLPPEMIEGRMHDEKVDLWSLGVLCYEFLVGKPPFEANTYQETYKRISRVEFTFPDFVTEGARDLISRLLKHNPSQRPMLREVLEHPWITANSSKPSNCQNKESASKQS
Procedure: as §1
(§3) Aurora-A (h) is incubated with 8 mM MOPS pH 7.0, 0.2 mM EDTA, 200 μM LRRASLG (Kemptide), 10 mM MgAcetate and [γ-^33P-ATP] […] The reaction is initiated by the addition of the MgATP mix. After incubation for 40 minutes at room temperature, the reaction is stopped by the addition of 3% phosphoric acid solution. 10 μL of the reaction is then spotted onto a P30 filtermat and washed three times for 5 minutes in 75 mM phosphoric acid and once in methanol prior to drying and scintillation counting.
as §2

[3] = target: T3, JAK2 (h) (Homo sapiens, UniProt O60674); experiment: JAK2 (h) kinase assay; assay type: biochemical; conditions: [γ-33P-ATP] 10 μM or KM values; 40 minutes at room temperature
T3 construct: purchased Millipore UK Ltd (assays performed there as a service)
Procedure: Kinase assays can be performed by measurement of incorporation of γ-^33P ATP into immobilized myelin basic protein (MBP). High binding white 384 well plates (Greiner) are coated with MBP (Sigma # M-1891) by incubation of 60 μL well of 20 μg/mL MBP in Tris-buffered saline (TBS; 50 mM Tris pH 8.0, 138 mM NaCl, 2.7 mM KCl) for 24 h at 4° C. Plates are washed 3× with 100 μL TBS. Kinase reactions are carried out in a total volume of 34 μL in kinase buffer (according to the need to make, for example, 5 mM Hepes pH 7.6, 15 mM NaCl, 0.01% bovine gamma globulin (Sigma #1-5506), 10 mM MgCl2, 1 mM DTT, 0.02% TritonX-100). Compound dilutions are performed in DMSO and added to assay wells to a final DMSO concentration of 1%. Each data point is measured in duplicate, and at least two duplicate assays are performed for each individual compound determination. Enzyme is added to final concentrations of 10 nM or 20 nM, for example. A mixture of unlabeled ATP and γ-^33P ATP is added to start the reaction (2×10^6 cpm of γ-^33P ATP per well (3000 Ci/mmole) and 10 μM unlabeled ATP, typically. The reactions are carried out for 1 hour at room temperature with shaking. Plates are washed 7× with TBS, followed by the addition of 50 μL well scintillation fluid (Wallac). Plates are read using a Wallac Trilux counter. This is only one format of such assays; various other formats are possible, as known to one skilled in the art.
as §1
as §3, with “JAK2” for “Aurora-A”, “100” for “200”, “[…],” for “LRRASLG (Kemptide),”
as §2

[4] = Compound stability in rat liver microsomes; assay type: in vitro ADME; conditions: for CLint scaled at 5 μM: liver microsomes, pH 7.4, in vivo CLint extrapolated from rat liver microsome incubation; for half-life at 5 μM: rat liver microsomes 0.5 mg protein/mL, compound 5 μM, NADPH 1.0 mM, pH 7.4, 37° C., read-out: Rat T1/2
Method in brief: (§4)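 Compounds (5 μM) incubated at 37 °C with human or rat liver microsomes (0.5 mg protein/mL) and 1.0 mM NADPH in 100 mM phosphate buffer pH 7.4, 0.05% DMSO, in duplicate. Sampled 0–60 min, quantified by LC/MS/MS as % of time zero; CLint extrapolated.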

[5] = Compound stability in human liver microsomes; assay type: in vitro ADME; conditions: for half-life at 5 μM: human liver microsomes 0.5 mg protein/mL, compound 5 μM, NADPH 1.0 mM, pH 7.4, 37° C., read-out: Human T1/2; for CLint scaled at 5 μM: liver microsomes, pH 7.4, in vivo CLint extrapolated from human liver microsome incubation
Method in brief: as §4

[6] = tested on: PMA-induced increase in mouse ear thickness and weight; experiment: Topical PMA-induced acute atopic dermatitis in ICR mice; assay type: in vivo; conditions: ICR female mice, 0.3 mg/ear/bid topical; for thickness (right ear) / Weight (right ear): 30 minutes before and 15 minutes after PMA, Mean±Sem; for thickness (right ear) / thickness Inhibition ratio: 6 hours after PMA
Procedure: ICR female mice (20-30 g), five mice or nine mice/group, were used in this study. Five micrograms of PMA (phorbol 12-myristate 13-acetate) in 20 μL of ethanol was applied topically to the anterior and posterior surface of the right ear of each mouse. Twenty microliters of vehicle (ethanol/acetone ([…])=1/1); 0.3 mg of EX. 68 ([…]); EX. 76, EX. 50, EX. 92 or EX. 65 (0.3 mg […]) were administrated to the same areas 30 minutes before and 15 minutes after PMA application. The thickness of right ears of each mouse was measured 6 hours after PMA stimulation. Ear weight of right ears of each mouse was weighed with analytical balance Each value represents the Mean±Sem. Statistical significance compared with model groups (*P<0.05; **P<0.01). Tables 5-1, 5-2 and 5-3 listed the inhibitory effect on PMA-induced increase in mouse ear thickness and weight. The compounds of the present invention have a good inhibitory effect on PMA-induced increase in mouse ear thickness and weight.

[7] = Pharmacokinetics after intravenous and oral administration in rats; assay type: in vivo; conditions: for Clearance (CL) after iv dosing / AUC(0-t) / half-life / Vd: dose 1 mg/kg (Ex. 9: 0.6, Ex. 18: 0.5, Ex. 50: 0.96 mg/kg), iv dosing; for AUC(0-t) / half-life / Vd / bioavailability: rat, plasma; for Vd: read-out: Vss; for bioavailability: oral (generally 5 or 10 mg/kg) versus iv dosing, read-out: F (oral bioavailability)
Method in brief: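 Rats dosed i.v. (about 0.5, 0.6, 1 or 2 mg/kg) or p.o. (5 or 10 mg/kg) as solution, suspension or capsule. Plasma sampled over 24 h and quantified by LC/MS/MS in MRM mode with ESI.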

T3 sequence (O60674 whole entry): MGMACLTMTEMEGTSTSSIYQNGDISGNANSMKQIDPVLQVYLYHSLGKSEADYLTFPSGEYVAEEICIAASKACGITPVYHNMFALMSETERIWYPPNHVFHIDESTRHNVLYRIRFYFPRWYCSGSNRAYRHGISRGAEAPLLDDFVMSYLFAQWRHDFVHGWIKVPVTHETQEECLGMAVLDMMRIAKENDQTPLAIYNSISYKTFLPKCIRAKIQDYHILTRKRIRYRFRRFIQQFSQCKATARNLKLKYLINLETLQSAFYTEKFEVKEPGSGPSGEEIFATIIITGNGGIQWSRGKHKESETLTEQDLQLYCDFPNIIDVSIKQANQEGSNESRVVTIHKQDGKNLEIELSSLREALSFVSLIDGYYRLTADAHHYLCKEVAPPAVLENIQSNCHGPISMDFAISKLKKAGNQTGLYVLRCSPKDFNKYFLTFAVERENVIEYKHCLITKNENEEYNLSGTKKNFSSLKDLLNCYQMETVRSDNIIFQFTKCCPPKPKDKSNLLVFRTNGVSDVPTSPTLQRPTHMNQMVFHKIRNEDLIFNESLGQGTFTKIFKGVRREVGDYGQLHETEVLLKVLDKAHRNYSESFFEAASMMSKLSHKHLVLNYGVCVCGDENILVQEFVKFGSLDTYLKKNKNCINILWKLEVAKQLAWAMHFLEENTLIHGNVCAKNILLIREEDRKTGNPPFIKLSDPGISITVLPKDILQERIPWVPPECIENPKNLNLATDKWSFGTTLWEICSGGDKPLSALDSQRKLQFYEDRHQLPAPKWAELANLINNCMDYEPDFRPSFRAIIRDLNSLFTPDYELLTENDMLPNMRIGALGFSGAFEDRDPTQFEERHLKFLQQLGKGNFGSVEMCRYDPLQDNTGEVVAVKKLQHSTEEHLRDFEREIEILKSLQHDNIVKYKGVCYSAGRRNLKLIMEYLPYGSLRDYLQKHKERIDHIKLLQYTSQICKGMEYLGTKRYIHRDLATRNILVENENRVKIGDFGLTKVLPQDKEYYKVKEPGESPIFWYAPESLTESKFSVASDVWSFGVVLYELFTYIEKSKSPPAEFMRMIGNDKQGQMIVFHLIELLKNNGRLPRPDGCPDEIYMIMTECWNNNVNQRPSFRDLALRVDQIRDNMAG
T1 sequence (P23458 whole entry): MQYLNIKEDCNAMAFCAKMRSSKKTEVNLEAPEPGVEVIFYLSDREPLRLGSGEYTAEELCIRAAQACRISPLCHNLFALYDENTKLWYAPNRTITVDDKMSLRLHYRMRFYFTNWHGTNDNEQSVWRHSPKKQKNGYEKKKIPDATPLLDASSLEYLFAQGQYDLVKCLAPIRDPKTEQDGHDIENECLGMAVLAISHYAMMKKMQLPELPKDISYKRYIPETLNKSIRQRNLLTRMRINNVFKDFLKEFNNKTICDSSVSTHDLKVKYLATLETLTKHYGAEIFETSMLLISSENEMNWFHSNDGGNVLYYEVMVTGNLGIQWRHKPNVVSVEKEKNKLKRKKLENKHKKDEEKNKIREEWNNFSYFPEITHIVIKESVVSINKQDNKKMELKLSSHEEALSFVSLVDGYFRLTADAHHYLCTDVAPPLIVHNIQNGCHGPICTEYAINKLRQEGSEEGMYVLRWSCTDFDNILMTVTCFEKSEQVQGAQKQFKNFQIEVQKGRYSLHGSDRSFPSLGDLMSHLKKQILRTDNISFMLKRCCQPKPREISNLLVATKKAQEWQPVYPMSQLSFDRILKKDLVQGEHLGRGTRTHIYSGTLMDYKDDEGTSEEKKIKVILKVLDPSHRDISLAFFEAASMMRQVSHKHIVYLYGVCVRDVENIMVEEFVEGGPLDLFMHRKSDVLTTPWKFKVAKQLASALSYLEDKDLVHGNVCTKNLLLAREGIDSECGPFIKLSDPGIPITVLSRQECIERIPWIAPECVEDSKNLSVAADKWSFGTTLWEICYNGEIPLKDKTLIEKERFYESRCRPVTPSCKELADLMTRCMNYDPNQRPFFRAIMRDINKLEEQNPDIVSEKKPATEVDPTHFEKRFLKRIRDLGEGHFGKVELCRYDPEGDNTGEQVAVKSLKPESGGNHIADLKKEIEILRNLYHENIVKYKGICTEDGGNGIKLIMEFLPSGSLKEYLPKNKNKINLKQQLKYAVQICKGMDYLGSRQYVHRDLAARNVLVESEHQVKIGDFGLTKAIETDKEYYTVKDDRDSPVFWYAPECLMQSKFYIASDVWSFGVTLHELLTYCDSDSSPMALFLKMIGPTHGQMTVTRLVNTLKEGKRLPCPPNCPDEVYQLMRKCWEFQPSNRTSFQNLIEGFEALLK

SMILES	IC50 [1]	IC50 [2]	IC50 [3]	CLint scaled at 5 μM [4]	half-life at 5 μM [4]	half-life at 5 μM [5]	CLint scaled at 5 μM [5]	Clearance (CL) after iv dosing [7]	AUC(0-t) [7]	half-life [7]	Vd [7]	bioavailability [7]	Weight Inhibition ratio [6]	thickness (right ear) [6]	Weight (right ear) [6]	thickness Inhibition ratio [6]
CC(C)(O)Cc1cnc2cc(Nc3ncc(Cl)c(NC4CCN(c5ccc(C#N)cn5)CC4)n3)ccn12 [Example 42, 6-(4-((5-chloro-2-((3-(2-hydroxy-2-methylpropyl)imidazo[1,2-a]pyridin-7-yl)amino)pyrimidin-4-yl)amino)piperidin-1-yl)nicotinonitrile]	< 0.3 nM	1460 nM	23 nM													
N#Cc1ccc(N2CCC(Nc3nc(Nc4cnc5c(c4)ncn5CCO)ncc3Cl)CC2)nc1 [Example 92, 6-(4-((5-chloro-2-((3-(2-hydroxyethyl)-3H-imidazo[4,5-b]pyridin-6-yl)amino)pyrimidin-4-yl)amino)piperidin-1-yl)nicotinonitrile]													72.30%	0.319 ± 0.027** mm	21.444 ± 1.952** mg	60.03%
CC(C)(O)c1nc2cc(Nc3ncc(Cl)c(NC4CCN(c5ccc(C#N)cc5)CC4)n3)ccn2n1 [Example 81, 4-(4-((5-chloro-2-((2-(2-hydroxypropan-2-yl)-[1,2,4]triazolo[1,5-a]pyridin-7-yl)amino)pyrimidin-4-yl)amino)piperidin-1-yl)benzonitrile]	< 0.3 nM			25.5 mL/min/kg	97.3 min	419 min	4.1 mL/min/kg	162 mL/min/kg	1710 ng·h/mL	79.8 min	0.946 L/kg	99.6%				
CC(O)Cc1nc2cc(Nc3ncc(Cl)c(NC4CCN(c5ccc(C#N)cn5)CC4)n3)ccn2n1 (stereo not drawn) [Example 57, 6-(4-((5-chloro-2-((2-(2-hydroxypropyl)-[1,2,4]triazolo[1,5-a]pyridin-7-yl)amino)pyrimidin-4-yl)amino)piperidin-1-yl)nicotinonitrile]	0.9 nM	> 300 nM	5 nM													

Now from value to compound, other results behind:

IC50 [1]	IC50 [2]	IC50 [3]	CLint scaled at 5 μM [4]	half-life at 5 μM [4]	half-life at 5 μM [5]	CLint scaled at 5 μM [5]	Clearance (CL) after iv dosing [7]	AUC(0-t) [7]	half-life [7]	Vd [7]	bioavailability [7]	SMILES	Weight Inhibition ratio [6]	thickness (right ear) [6]	Weight (right ear) [6]	thickness Inhibition ratio [6]
0.8 nM	> 300 nM	27 nM										COC(=O)Cc1nc2cc(Nc3ncc(Cl)c(NC4CCN(c5ccc(C#N)nn5)CC4)n3)ccn2n1 [Example 58, methyl 2-(7-((5-chloro-4-((1-(6-cyanopyridazin-3-yl)piperidin-4-yl)amino)pyrimidin-2-yl)amino)-[1,2,4]triazolo[1,5-a]pyridin-2-yl)acetate]				
0.9 nM	440 nM	41 nM										CC(C)(O)Cc1cn2ccc(Nc3ncc(Cl)c(NC4CCN(c5ccc(C#N)nn5)CC4)n3)cc2n1 [Example 38, 6-(4-((5-chloro-2-((2-(2-hydroxy-2-methylpropyl)imidazo[1,2-a]pyridin-7-yl)amino)pyrimidin-4-yl)amino)piperidin-1-yl)pyridazine-3-carbonitrile]				
0.5 nM			1440 mL/min/kg	1.7 min	15.1 min	115 mL/min/kg						CC(C)(O)Cc1cn2ccc(Nc3ncc(Cl)c(NC4CCN(c5ccc(C#N)cn5)CC4)n3)cc2n1 [Example 76, 6-(4-((5-chloro-2-((2-(2-hydroxy-2-methylpropyl)imidazo[1,2-a]pyridin-7-yl)amino)pyrimidin-4-yl)amino)piperidin-1-yl)nicotinonitrile]	68.40%	0.252 ± 0.018** mm	20.000 ± 1.323** mg	77.86%
			58.2 mL/min/kg	29.9 min	55.6 min	31.3 mL/min/kg	14.2 mL/min/kg	1210 ng·h/mL	63 min	1.17 L/kg	51.8%	Cn1cnc2cc(Nc3ncc(Cl)c(NC4CCN(c5ccc(C#N)nn5)CC4)n3)ccc21 [Example 50, 6-(4-((5-chloro-2-((1-methyl-1H-benzo[d]imidazol-5-yl)amino)pyrimidin-4-yl)amino)piperidin-1-yl)pyridazine-3-carbonitrile]	39.95%	0.321 ± 0.022** mm	25.222 ± 1.998** mg	46.89%
< 0.3 nM	467 nM	10 nM										Cc1cn2ccc(Nc3ncc(Cl)c(NC4CCN(c5ccc(C#N)nn5)CC4)n3)cc2n1 [Example 27, 6-(4-((5-chloro-2-((2-methylimidazo[1,2-a]pyridin-7-yl)amino)pyrimidin-4-yl)amino)piperidin-1-yl)pyridazine-3-carbonitrile]				
